Laboratory results taken from PubChem BioAssay (NCI).
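In this assay, cells in 96-well plates receive the compound at five concentrations for 48 hours. Endpoints are linearly interpolated between the surrounding concentrations. The concentration for full growth arrest is given as TGI.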

What was measured:
Assay in all cases: DTP human tumour cell line panel, 48 h
SW-620 colon = system: SW-620 colon
CAKI-1 renal = system: CAKI-1 renal
SN12C renal = system: SN12C renal
U251 CNS = system: U251 CNS
SK-MEL-2 melanoma = system: SK-MEL-2 melanoma
OVCAR-5 ovarian = system: OVCAR-5 ovarian
KM12 colon = system: KM12 colon
T-47D breast = system: T-47D breast
MDA-N = system: MDA-N
RXF 393 renal = system: RXF 393 renal
M14 melanoma = system: M14 melanoma
CCRF-CEM leukemia = system: CCRF-CEM leukemia
MCF7 breast = system: MCF7 breast
NCI/ADR-RES ovarian = system: NCI/ADR-RES ovarian
MDA-MB-435 = system: MDA-MB-435
SNB-75 CNS = system: SNB-75 CNS
TK-10 renal = system: TK-10 renal
HCT-15 colon = system: HCT-15 colon
SK-OV-3 ovarian = system: SK-OV-3 ovarian
HOP-62 NSCLC = system: HOP-62 NSCLC
SF-295 CNS = system: SF-295 CNS
OVCAR-8 ovarian = system: OVCAR-8 ovarian
SK-MEL-5 melanoma = system: SK-MEL-5 melanoma
RPMI-8226 leukemia = system: RPMI-8226 leukemia
MOLT-4 leukemia = system: MOLT-4 leukemia
PC-3 prostate = system: PC-3 prostate
IGROV1 ovarian = system: IGROV1 ovarian
HCC-2998 colon = system: HCC-2998 colon
LOX IMVI melanoma = system: LOX IMVI melanoma
HS 578T breast = system: HS 578T breast
MDA-MB-231 breast = system: MDA-MB-231 breast
HOP-92 NSCLC = system: HOP-92 NSCLC
COLO 205 colon = system: COLO 205 colon
A498 renal = system: A498 renal
NCI-H460 lung = system: NCI-H460 lung
HL-60(TB) leukemia = system: HL-60(TB) leukemia
UO-31 renal = system: UO-31 renal
K-562 leukemia = system: K-562 leukemia
NCI-H226 lung = system: NCI-H226 lung
DU-145 prostate = system: DU-145 prostate
786-0 renal = system: 786-0 renal
SNB-19 CNS = system: SNB-19 CNS
HCT-116 colon = system: HCT-116 colon
OVCAR-3 ovarian = system: OVCAR-3 ovarian
NCI-H522 lung = system: NCI-H522 lung
UACC-257 melanoma = system: UACC-257 melanoma
SF-268 CNS = system: SF-268 CNS
OVCAR-4 ovarian = system: OVCAR-4 ovarian
SR leukemia = system: SR leukemia
UACC-62 melanoma = system: UACC-62 melanoma
BT-549 breast = system: BT-549 breast
NCI-H23 lung = system: NCI-H23 lung
EKVX NSCLC = system: EKVX NSCLC
ACHN renal = system: ACHN renal
SF-539 CNS = system: SF-539 CNS
MALME-3M melanoma = system: MALME-3M melanoma
KM20L2 colon = system: KM20L2 colon
LXFL 529 NSCLC = system: LXFL 529 NSCLC
HOP-18 NSCLC = system: HOP-18 NSCLC
DLD-1 colon = system: DLD-1 colon
DMS 273 small cell lung = system: DMS 273 small cell lung
A549 NSCLC = system: A549 NSCLC
DMS 114 small cell lung = system: DMS 114 small cell lung
HT29 colon = system: HT29 colon
SK-MEL-28 melanoma = system: SK-MEL-28 melanoma
M19-MEL melanoma = system: M19-MEL melanoma

Structure (SMILES): Fc1ccc(/C=C2\COCC3=C2NC(=S)NC3c2ccc(F)cc2)cc1 (stereo unspecified)
- TGI (SW-620 colon): 36 µM
- TGI (CAKI-1 renal): 76.2 µM
- TGI (SN12C renal): 33.3 µM
- TGI (U251 CNS): 40.8 µM
- TGI (SK-MEL-2 melanoma): 28.6 µM
- TGI (OVCAR-5 ovarian): 47 µM
- TGI (KM12 colon): 63.2 µM
- TGI (T-47D breast): 90.1 µM
- TGI (MDA-N): 34.2 µM
- TGI (RXF 393 renal): 30.4 µM
- TGI (M14 melanoma): 30.1 µM
- TGI (CCRF-CEM leukemia): 45.7 µM
- TGI (MCF7 breast): 39.5 µM
- TGI (NCI/ADR-RES ovarian): 40 µM
- TGI (MDA-MB-435): 33.3 µM
- TGI (SNB-75 CNS): 57.6 µM
- TGI (TK-10 renal): 45.5 µM
- TGI (HCT-15 colon): 32.1 µM
- TGI (SK-OV-3 ovarian): 79.8 µM
- TGI (HOP-62 NSCLC): 31.7 µM
- TGI (SF-295 CNS): 33.3 µM
- TGI (OVCAR-8 ovarian): 30 µM
- TGI (SK-MEL-5 melanoma): 33.5 µM
- TGI (RPMI-8226 leukemia): 44.4 µM
- TGI (MOLT-4 leukemia): 54 µM
- TGI (PC-3 prostate): 33 µM
- TGI (IGROV1 ovarian): 76.3 µM
- TGI (HCC-2998 colon): 32.7 µM
- TGI (LOX IMVI melanoma): 38.2 µM
- TGI (HS 578T breast): 52.7 µM
- TGI (MDA-MB-231 breast): 33.9 µM
- TGI (HOP-92 NSCLC): 34 µM
- TGI (COLO 205 colon): 35.1 µM
- TGI (A498 renal): 30.6 µM
- TGI (NCI-H460 lung): 36 µM
- TGI (HL-60(TB) leukemia): 35.4 µM
- TGI (UO-31 renal): 33.5 µM
- TGI (K-562 leukemia): 44.6 µM
- TGI (NCI-H226 lung): 45.1 µM
- TGI (DU-145 prostate): 77.3 µM
- TGI (786-0 renal): 34.4 µM
- TGI (SNB-19 CNS): 47.7 µM
- TGI (HCT-116 colon): 32.1 µM
- TGI (OVCAR-3 ovarian): 32.6 µM
- TGI (NCI-H522 lung): 34.2 µM
- TGI (UACC-257 melanoma): 34.2 µM
- TGI (SF-268 CNS): 33.9 µM
- TGI (OVCAR-4 ovarian): 38.5 µM
- TGI (SR leukemia): 45 µM
- TGI (UACC-62 melanoma): 32.4 µM
- TGI (BT-549 breast): 53.5 µM
- TGI (NCI-H23 lung): 50.7 µM
- TGI (EKVX NSCLC): 42.6 µM
- TGI (ACHN renal): > 100 µM
- TGI (SF-539 CNS): 36.9 µM

Structure (SMILES): CN(C)C(=C1C(Br)=C(Br)C(Br)=C1Br)N(C)C
- TGI (SW-620 colon): > 100 µM
- TGI (MALME-3M melanoma): > 100 µM
- TGI (CAKI-1 renal): > 100 µM
- TGI (SN12C renal): > 100 µM
- TGI (U251 CNS): > 100 µM
- TGI (KM20L2 colon): > 100 µM
- TGI (SK-MEL-2 melanoma): > 100 µM
- TGI (OVCAR-5 ovarian): > 100 µM
- TGI (KM12 colon): > 100 µM
- TGI (LXFL 529 NSCLC): > 100 µM
- TGI (RXF 393 renal): > 100 µM
- TGI (M14 melanoma): > 100 µM
- TGI (CCRF-CEM leukemia): 95.3 µM
- TGI (HOP-18 NSCLC): > 100 µM
- TGI (SNB-75 CNS): > 100 µM
- TGI (DLD-1 colon): > 100 µM
- TGI (DMS 273 small cell lung): > 100 µM
- TGI (A549 NSCLC): > 100 µM
- TGI (TK-10 renal): > 100 µM
- TGI (HCT-15 colon): > 100 µM
- TGI (SK-OV-3 ovarian): > 100 µM
- TGI (HOP-62 NSCLC): > 100 µM
- TGI (SF-295 CNS): > 100 µM
- TGI (DMS 114 small cell lung): > 100 µM
- TGI (OVCAR-8 ovarian): > 100 µM
- TGI (SK-MEL-5 melanoma): > 100 µM
- TGI (RPMI-8226 leukemia): 76.7 µM
- TGI (MOLT-4 leukemia): > 100 µM
- TGI (IGROV1 ovarian): > 100 µM
- TGI (HT29 colon): > 100 µM
- TGI (HCC-2998 colon): > 100 µM
- TGI (SK-MEL-28 melanoma): > 100 µM
- TGI (LOX IMVI melanoma): 55.6 µM
- TGI (M19-MEL melanoma): > 100 µM
- TGI (HOP-92 NSCLC): > 100 µM
- TGI (COLO 205 colon): > 100 µM
- TGI (NCI-H460 lung): > 100 µM
- TGI (HL-60(TB) leukemia): > 100 µM
- TGI (UO-31 renal): > 100 µM
- TGI (K-562 leukemia): > 100 µM
- TGI (786-0 renal): > 100 µM
- TGI (OVCAR-3 ovarian): > 100 µM
- TGI (NCI-H522 lung): 39.9 µM
- TGI (UACC-257 melanoma): > 100 µM
- TGI (SF-268 CNS): > 100 µM
- TGI (OVCAR-4 ovarian): > 100 µM
- TGI (UACC-62 melanoma): > 100 µM
- TGI (NCI-H23 lung): > 100 µM
- TGI (EKVX NSCLC): > 100 µM
- TGI (ACHN renal): > 100 µM
- TGI (SF-539 CNS): > 100 µM
